Laboratory results: patent US9914722B2, “Compounds for treating spinal muscular atrophy” (PTC Therapeutics Inc., priority 2012, dated 2018)
Entries after “also recorded” stand apart in the source; their conditions may differ.

Key:
[1] = test system: human SMN1 minigene full length and Δ7 mRNA (SMN1-A minigene); assay: Human SMN1 minigene mRNA end-point semi-quantitative RT-PCR splicing assay in cultured cells; assay type: cell-based; conditions: HEK293H cells transfected with SMN1-A minigene, 7 hour, increasing concentrations, FIG. 8
Text: Human SMN1 Minigene mRNA End-Point Semi-Quantitative RT-PCR Splicing Assay in Cultured Cells
The RT-PCR assay is used to visualize and quantify the levels of the human SMN1 minigene full length and Δ7 mRNA in primary cells and cell lines expressing the human SMN1 minigene construct treated with a test compound.
Using the procedure for the preparation of the SMN2 minigene construct described in Biological Example 1, the SMN1 version of the minigene is generated by replacing the sixth nucleotide of exon 7 (a thymine residue) of the SMN2-A minigene construct to cytosine using site-directed mutagenesis. Thus, similar to the SMN2-A minigene construct, the SMN1 minigene construct has a single adenine residue inserted after nucleic residue 48 of exon 7. The SMN1 minigene construct is referred to as SMN1-A.
Protocol. HEK293H cells (10,000 cells/well/199 μL) were transfected, using FuGENE-6 reagent, in a 96-well plate with 15 ng of the SMN1-A minigene reporter plasmid per well. Cells were incubated for 24 hours following transfection. Test compounds were serially diluted 3.16-fold in 100% DMSO to generate a 7-point concentration curve. A solution of test compound (1 μL, 200× in DMSO) was added to each test well. 1 μL DMSO was added to each control well. The plate was incubated for 7 hours in a cell culture incubator (37° C., 5% CO2, 100% relative humidity). The cells were then lysed in Cells-To-Ct lysis buffer and the lysates were stored at −80° C.
Two SMN spliced mRNA are generated from the SMN1 minigene. The term “SMN1 minigene FL” refers to the first spliced product containing exon 7, corresponding to full length SMN1 mRNA. The term “SMN1 minigene Δ7” refers to the second product lacking exon 7.
SMN1 minigene FL and SMN1 minigene Δ7 mRNA are amplified using the primers in Table 11. Primer SMN Forward C (SEQ ID NO. 11) hybridizes to a nucleotide sequence in exon 6 (nucleotide 43 to nucleotide 63), primer SMN Reverse A (SEQ ID NO. 2) hybridizes to a nucleotide sequence in the coding sequence of Firefly luciferase. The combination of these two oligonucleotides detects only SMN1 or SMN2 minigenes (RT-PCR) and will not detect endogenous SMN1 or SMN2 genes. Since the HEK293H cells used in Example 16 were transfected with only the human SMN1 minigene, RT-PCR can visualize and quantify only SMN1 minigene FL and SMN1 minigene Δ7 mRNA.
To synthesize cDNA, 5 μL of lysate, 4 μL of 5× iScript reaction mix, 1 μL of reverse transcriptase, and 10 μL of water are combined and incubated 5 min at 25° C. followed by 30 min at 42° C., followed by 5 min at 85° C. The cDNA solution is stored at −20° C.
To perform endpoint PCR, 5 μL of cDNA, 0.2 μL of 100 μM forward primer, 0.2 μL of 100 μM reverse primer, and 22.5 μL of polymerase super mix are combined in a 96 well semiskirted PCR plate. […]

SMILES | melting point [°C] | SMN1 minigene FL mRNA (gel band) [1] | SMN1 minigene Δ7 mRNA (gel band) [1]
C[C@@H]1CN(c2ccc3oc(-c4cn5ccccc5n4)cc(=O)c3c2)C[C@H](C)N1 [Cpd 17, 6-[(3R,5S)-3,5-dimethylpiperazin-1-yl]-2-(imidazo[1,2-a]pyridin-2-yl)-4H-chromen-4-one] | 208 to 210 | progressively more SMN1 minigene FL mRNA; also recorded: dose dependent increase in SMN1 minigene full-length mRNA | less SMN1 minigene Δ7 mRNA; also recorded: dose dependent decrease in SMN1 minigene Δ7 mRNA
COc1ccc(-c2cc(=O)c3cc(N4CCN[C@@H](C)C4)ccc3o2)cc1F [Cpd 38, 2-(3-fluoro-4-methoxyphenyl)-6-[(3S)-3-methylpiperazin-1-yl]-4H-chromen-4-one] | 100 to 102 | progressively more SMN1 minigene FL mRNA; also recorded: dose dependent increase in SMN1 minigene full-length mRNA | less SMN1 minigene Δ7 mRNA; also recorded: dose dependent decrease in SMN1 minigene Δ7 mRNA
